One data set relates to RICE. Put plainly: Multi-crop greenhouse test, herbicide POE (Examples 62-64; Tables 61-63). The format is in vivo. On the set-up: dose or concentration left out as unconfirmed. To be noted: Oryza sativa, Table 62, Biocide No. 1 8.96 Kg/Ha, antidote 4.48 Kg/Ha PPI where in label. As to the method: (§1) Tests according to this invention in various crops indicate widespread application of the invention. In Examples 62-66 below are described tests with a variety of herbicides contacted with COUNTER® 15G in the presence and absence of MON-7400 (Antidote No. 12); MON-13900 (No. 1); MON-4660 (No. 16) and flurazole (No. 16). Those tests were conducted according to Procedures IV or V described above and illustrated further in other foregoing examples. Plants used in all tests were, for crops (as abbreviated in parentheses); cotton (COTT); soybean (SOBE); CORN, grain sorghum (GRSO); wheat (WHEA) and RICE, and the weeds giant foxtail (GIFT) and velvetleaf (VELE). The data in the tables below represent averages of two replications.
(§2) In this test the crops and weeds were planted 1.3 cm deep in 13.7 cm X 27.7 cm pans containing Dupo silt loam soil. The test safeners were applied in acetone solution and COUNTER 15G as dry granules to soil cover layers and incorporated by shaking in a bag. Treated cover layers were placed on seeded pans which were transferred to greenhouse benches and subirrigated. Herbicide was applied POE six (6) days after PPI initiation and observations of plant injury made ten (10) days later; results are shown in Table 61. The herbicide used in this example was BEACON (No. 8).
(§3) The test procedure described in Example 62 was repeated using ACCENT® (Herbicide No. 7) as the herbicide; the biocide and safeners were the same.

The next data set concerns Giant foxtail (GIFT). The data set is described as above. The format is in vivo. On the set-up: dose or concentration left out as unconfirmed. The conditions noted are these: Setaria faberi, Table 62, Biocide No. 1 8.96 Kg/Ha, antidote 4.48 Kg/Ha PPI where in label. As to the method:
as §1, §2, §3

Data set [1] has as its system Velvetleaf (VELE). Described as above. The format is in vivo. On the set-up: dose or concentration left out as unconfirmed. The conditions noted are these: Abutilon theophrasti, Table 62, Biocide No. 1 8.96 Kg/Ha, antidote 4.48 Kg/Ha PPI where in label. As to the method: as §1, §2, §3
A further data set relates to wheat (WHEA). Described as above. The format is in vivo. On the set-up: dose or concentration left out as unconfirmed. To be noted: Triticum aestivum, Table 62, Biocide No. 1 8.96 Kg/Ha, antidote 4.48 Kg/Ha PPI where in label. As to the method: as §1, §2, §3
A further data set relates to soybean (SOBE). Described as above. The format is in vivo. Further details: dose or concentration left out as unconfirmed. To be noted: Glycine max, Table 62, Biocide No. 1 8.96 Kg/Ha, antidote 4.48 Kg/Ha PPI where in label. As to the method:
as §1, §2, §3

In a further data set the test system is grain sorghum (GRSO). The description is as above. On the set-up: dose or concentration left out as unconfirmed. The conditions noted are these: Biocide No. 1 8.96 Kg/Ha, antidote 4.48 Kg/Ha PPI where in label. The format is in vivo. How it is done:
as §1, §2, §3

The test system of the next data set is cotton (COTT). The data set can be described thus: Multi-crop greenhouse test, COUNTER 15G and safener PPI, herbicide POE (Examples 62-64; Tables 61-63). Type of data set: in vivo. On the set-up: dose or concentration left out as unconfirmed. To be noted: Gossypium hirsutum, Table 62, Biocide No. 1 8.96 Kg/Ha, antidote 4.48 Kg/Ha PPI where in label. As to the method: as §1, §2, §3

Data set [2] has as its system Corn. Put plainly: Multi-crop greenhouse test, herbicide POE (Examples 62-64; Tables 61-63). The conditions noted are these: Zea mays, Table 62, Biocide No. 1 8.96 Kg/Ha, antidote 4.48 Kg/Ha PPI where in label. Type of data set: in vivo. On the set-up: inhibition: dose or concentration left out as unconfirmed. As to the method:
as §1, §2, §3

The subject of data set [3] is Velvetleaf (VELE). Type of data set: in vivo, Abutilon theophrasti.
Data set [4] concerns Corn.
The test system of another data set is Shattercane (SHCA). The format is in vivo.
Data set [5] concerns Corn. Put plainly: Field trials, PPI, PRE and POE herbicide applications with terbufos (Example 7). Type of data set: in vivo. To be noted: mean of five locations, soil-applied insecticide prior to planting. From the text: This example summarizes the results of one series of field trials from a plurality of locations and soil types wherein test chemicals were applied in various modes including pre-plant incorporated (PPI), post emergence (POE) and preemergence (PRE) with and without a safener (antidote). Test Chemicals were Herbicide Nos 1, 2, 3 and 7-9; Insecticide No. 1 and Antidote No. 1.
In these trials Insecticide No. 1 (terbufos) was T-banded or furrow applied at labeled rates prior to planting corn. PPI herbicide treatments were applied prior to insecticide applications; PRE treatments were applied after the insecticide application either prior to or after seeding the corn. POE herbicide applications were made at 2 corn-growth stages, i.e., early post (EP) at the 2-3 leaf stage and late post (LP) at the 4-7 leaf stage. Plots were small plot with 3 replications in a randomized complete block design. In the PRE and PPI herbicide treatments, Antidote No. 1 was applied as a tankmix in both treatments. In the POE herbicide treatments, that antidote was applied as a tank mix with the herbicide at the EP and LP stages.

[6] abbreviates: Herb. No. 7 (ACCENT) 0.0044 Kg/Ha POE.
Where [7] appears, read: Herb. No. 7 (ACCENT) 0.035 Kg/Ha POE.
The mark [8] stands for this setting: Herb. No. 7 (ACCENT) 0.28 Kg/Ha POE.
[9] abbreviates: Herbicide No. 7 0.28 Kg/Ha POE alone, 13 days after planting.
Where [10] appears, read: Herbicide No. 7 0.28 POE + Biocide No. 1 8.96 Kg/Ha PPI, 13 days after planting.
Setting [11] is: Herbicide No. 7 alone, POE 5 DAP, observed 13 DAP.
Where [12] appears, read: Table 14: no antidote, Herbicide No. 7 0.84 Kg/Ha POE and/or Biocide No. 2 8.96 Kg/Ha PPI, per label, 13 days after planting.
[13] abbreviates: Table 50, Herbicide No. 7 0.56 Kg/Ha POE, where applied Biocide No. 8 8.96 kg/Ha and antidote 4.48 Kg/Ha PPI, observed 9 days after POE.
Where [14] appears, read: no antidote, […], 13 days after planting.

Values joined by “and” are separate entries in the source; they are usually repeats but may differ in a detail not shown here. Equal values may be shown once. Read-outs that look alike come from different tables or passages of the source.

What is called inhibition is the share of the control response that was lost under treatment. In the case of `COc1cc(OC)nc(NC(=O)NS(=O)(=O)c2ncccc2C(=O)N(C)C)n1` [Herb. No. 7], the inhibition with RICE (setting [6]) amounted to 20%; in the data set on RICE (setting [7]) it was 40%; in the data set on RICE (setting [8]), 50%; with Giant foxtail (GIFT) (setting [6]), 65%; in the data set with Giant foxtail (GIFT) (setting [7]), 70%; with Giant foxtail (GIFT) (setting [8]), 75%. In addition, the inhibition with Velvetleaf (VELE) [1] (setting [6]) was 40%; with Velvetleaf (VELE) [1] (setting [7]) it was 60%; with Velvetleaf (VELE) [1] (setting [8]) it was 65%; in the data set with wheat (WHEA) (setting [6]), 35%; in the data set with wheat (WHEA) (setting [7]), 45%; with wheat (WHEA) (setting [8]), 60%. For the same molecule, the inhibition in the data set on soybean (SOBE) (setting [6]) was found to be 10%; in the data set on soybean (SOBE) (setting [7]), 20%; in the data set with soybean (SOBE) (setting [8]), 40%; in the data set with grain sorghum (GRSO) (Table 62, Herb. No. 7 (ACCENT) 0.0044 Kg/Ha POE), 60%; with grain sorghum (GRSO) (Table 62, Herb. No. 7 (ACCENT) 0.035 Kg/Ha POE), 65%; in the data set with grain sorghum (GRSO) (Table 62, Herb. No. 7 (ACCENT) 0.28 Kg/Ha POE) it was 75%. For the same molecule, the inhibition in the data set on cotton (COTT) (setting [6]) amounted to 25%; with cotton (COTT) (setting [7]) it was 40%; with cotton (COTT) (setting [8]), 50%; in the data set on Corn [2] (setting [6]), 0%; in the data set with Corn [2] (setting [7]), 0%; in the data set on Corn [2] (setting [8]), 0%.

For the molecule `COc1cc(OC)nc(NC(=O)NS(=O)(=O)c2ncccc2C(=O)N(C)C)n1` [Herbicide No. 7, reference compound], the “% Inhibition VELE” value in the data set with Velvetleaf (VELE) [3] (setting [9]) is 60%; in the data set with Velvetleaf (VELE) [3] (setting [10]), 65%; in the data set on Velvetleaf (VELE) [3] (setting [11]), 70%; in the data set with Velvetleaf (VELE) [3] (setting [12]), 65%; with Velvetleaf (VELE) [3] (setting [13]) it was 80%; in the data set on Velvetleaf (VELE) [3] (in vivo), 60% and 75%. Further, the “% Inhibition VELE” value in the data set on Velvetleaf (VELE) [3] (setting [14]) is reported as 60%. For the same molecule, the “safety to corn” value in the data set on Corn [4] (ACCENT alone, no insecticide, 0.28 to 0.84 kg/ha) is reported as “completely safe”. Also, the “% Inhibition Corn” value in the data set with Corn [4] (setting [9]) stood at 0%; with Corn [4] (setting [10]) it was 60%; in the data set with Corn [4] (setting [11]), 0%; in the data set with Corn [4] (setting [12]) it was 0%; with Corn [4] (setting [13]), 10%; in the data set with Corn [4] (setting [14]), 0%. The “% Inhibition SHCA” value is listed as 70% in the data set with Shattercane (SHCA) (setting [9]); 75% with Shattercane (SHCA) (setting [10]); 75% in the data set with Shattercane (SHCA) (setting [11]); 75% in the data set with Shattercane (SHCA) (setting [12]); 75% in the data set on Shattercane (SHCA) (setting [13]); 75% in the data set with Shattercane (SHCA) (in vivo). Also, in the data set on Shattercane (SHCA) (setting [14]), the “% Inhibition SHCA” value is recorded as 75%. Further, the “interaction with Insecticide No. 1 after POE herbicide” value in the data set on Corn [5] is reported as “Significant increased growth reduction”.
